Results published in patent US5489524A, “Chimeric protein that has a human Rho motif and deoxyribonuclease activity” (The United States of America as represented by the …, priority 1992, dated 1996).

Test system: Mammalian Endo-Exonuclease
Test: ss- and ds-DNase activities of the purified endo-exonuclease with divalent metal ions, NaCl, ATP or GTP (release of acid-soluble radioactivity from 32P-labeled pBR322 DNA)
Assay type: biochemical, Monkey
Conditions: for Activity % ds-DNase / Activity % ss-DNase: 37° C.
Description: The assay mixture contained 100 mM Tris-HCl pH 8.0, 10 mM MgCl2, and 17 μg of ^32 P-labelled linearized plasmid DNA. One unit of activity is defined as the amount of deoxyribonuclease which renders 1 μg of DNA acid-soluble in 30 min at 37° C. The plasmid was labeled using a random oligo-priming kit (Pharmacia Fine Chemical).
The ratios are calculated with respect to the activity of 10 mM Mg^2+ (100%).
The nuclease activities of putative recombination nucleases of E. coli are known to be affected by ATP. Moreover S. cerevisiae endo-exonuclease is believed to contain a region homologous to GTP-binding sites. The effects of ATP and GTP on the purified mammalian endo-exonuclease were therefore chosen to study.

[1] = metal ion 0.1 mM, activity with 10 mM Mg^2+ = 100%
[2] = metal ion 0.5 mM, activity with 10 mM Mg^2+ = 100%
[3] = metal ion 1.0 mM, activity with 10 mM Mg^2+ = 100%
[4] = metal ion […], activity with 10 mM Mg^2+ = 100%
[5] = metal ion 5.0 mM, activity with 10 mM Mg^2+ = 100%
[6] = metal ion 10.0 mM, reference = 100%
[7] = 0.1 mM nucleotide added, 10 mM Mg^2+
[8] = 1.0 mM nucleotide added, 10 mM Mg^2+

Row | ability to replace Mg^2+ as cofactor | concentration with inhibitory effects on the nuclease activities [mM] | Activity % ds-DNase [2] [%] | Activity % ss-DNase [2] [%] | Activity % ss-DNase [3] [%] | Activity % ds-DNase [4] [%] | Activity % ss-DNase [4] [%] | Ratio of Activities for ss/ds-DNase (metal ion 0.5 mM) | Activity % ss-DNase [5] [%] | SMILES | further results
1 | partially substitute for Mg^2+ | ≥ 0.25 | 0 | 0 | 0 | 0 | 0 |  |  | [Zn+2] [Zn^2+] | Activity % ds-DNase [1]: 70%; Activity % ss-DNase [1]: 75%
2 |  |  | 128 | 217 |  | 168 | 203 | 2.2 | 173 | [Mg+2] [Mg^2+] | optimal concentration for ds-DNase: 2.5 mM; optimal concentration for ss-DNase: 0.5 mM; Activity % ds-DNase [5]: 120%; Ratio of Activities for ss/ds-DNase (metal ion 10.0 mM): 1.3; Activity % ds-DNase [6]: 100%; Activity % ss-DNase [6]: 100%
3 | partially substitute for Mg^2+ | ≥ 2.0 | 195 | 258 | 215 | 0 | 0 | 1.7 | 0 | [Mn+2] [Mn^2+] | Ratio of Activities for ss/ds-DNase (metal ion 1.0 mM): 1.4; Activity % ds-DNase [3]: 212%; Activity % ss-DNase (metal ion 2.0 mM, activity with 10 mM Mg^2+ = 100%): 0%
4 |  |  |  |  |  |  |  |  |  | Nc1nc2c(ncn2[C@@H]2O[C@H](COP(=O)(O)OP(=O)(O)OP(=O)(O)O)[C@@H](O)[C@H]2O)c(=O)[nH]1 [GTP] | effect on ds-DNase activity (0.1 mM): slight enhancement of ds-DNase activity; Activity % ds-DNase [7]: 112%; Activity % ss-DNase [7]: 85%; Activity % ds-DNase [8]: 73%; Activity % ss-DNase [8]: 68%; effect on ss-DNase and ds-DNase activities (0.1-1.0 mM): slightly inhibited
